From PubChem BioAssay (NCI)
Where “and” joins values, the source holds several entries; their conditions need not be identical. Identical values can stand only once.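 Method: 48-hour compound exposure of cells in 96-well plates, five concentrations, linear interpolation of endpoints. GI50 is the concentration that inhibits growth by half. TGI denotes the concentration required for complete inhibition of growth.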

Columns and labels:
Assay in all cases: DTP human tumour cell line panel, 48 h
SN12C renal = test system: SN12C renal
TK-10 renal = test system: TK-10 renal
NCI-H23 lung = test system: NCI-H23 lung
OVCAR-4 ovarian = test system: OVCAR-4 ovarian
EKVX NSCLC = test system: EKVX NSCLC
U251 CNS = test system: U251 CNS
NCI/ADR-RES ovarian = test system: NCI/ADR-RES ovarian
HL-60(TB) leukemia = test system: HL-60(TB) leukemia
OVCAR-3 ovarian = test system: OVCAR-3 ovarian
NCI-H522 lung = test system: NCI-H522 lung

Compound	GI50 (SN12C renal)	TGI (SN12C renal)	GI50 (TK-10 renal)	TGI (TK-10 renal)	GI50 (NCI-H23 lung)	TGI (NCI-H23 lung)	GI50 (OVCAR-4 ovarian)	TGI (OVCAR-4 ovarian)	GI50 (EKVX NSCLC) [µM]	TGI (EKVX NSCLC) [µM]	GI50 (U251 CNS)	TGI (U251 CNS)	GI50 (NCI/ADR-RES ovarian) [µM]	TGI (NCI/ADR-RES ovarian) [µM]	GI50 (HL-60(TB) leukemia) [µM]	TGI (HL-60(TB) leukemia) [µM]	GI50 (OVCAR-3 ovarian)	TGI (OVCAR-3 ovarian)	GI50 (NCI-H522 lung)	TGI (NCI-H522 lung)
C[C@H]1CC2=CC(=O)CC[C@]2(C)[C@H]2CC[C@@]3(C)[C@@H](CC[C@]3(C)O)[C@H]12	41.6 µM	> 100 µM	31.5 µM	97.5 µM	38.2 µM	> 100 µM	38 µM	> 100 µM	11.3	> 100	31 µM	> 100 µM	28.7	> 86.5	12.9	36.8	33.9 µM	> 91.8 µM	28.4 µM	75.5 µM
S=C(Nc1ccccc1)N1CCn2c1nsc2=Nc1ccccc1	> 100 µM	> 100 µM	26.6 µM	95 µM	41.1 µM	> 100 µM	> 100 µM	> 100 µM	> 100	> 100	33 µM	> 100 µM	> 100	> 100	> 100	> 100	90 µM	> 100 µM	46.2 µM	> 100 µM
O=S1(=O)CC(Br)C(Br)C1 (stereo not given)	4.07 µM	17.4 µM	3.77 µM	11.9 µM	7.88 µM	26 µM	3.11 µM	18.4 µM	18.5	49.8	7.28 µM	23.6 µM	5.26	> 100	3.5	8.75	2.77 µM	7.82 µM	1.99 µM	3.86 µM
CC(C)(F)C[C@H](N[C@@H](c1ccc(-c2ccc(S(C)(=O)=O)cc2)cc1)C(F)(F)F)C(=O)NC1(C#N)CC1	14.8 µM and 42.6 µM	55 µM and > 100 µM	> 55 µM and 31.1 µM	> 55 µM and 81.2 µM	28.5 µM and 39.9 µM	55 µM and > 100 µM	9.47 µM and 19.5 µM	42.8 µM and 47.4 µM	30.7	55	17.9 µM and 30.3 µM	55 µM and > 100 µM	34.1	55	> 100	> 100	> 55 µM and 19.9 µM	> 55 µM and 47.9 µM	15.8 µM and 24.7 µM	55 µM and > 100 µM
CC[C@H](C)[C@H](NC(=O)c1nccn1C)C(=O)N(C)[C@H](C[C@@H](OC(C)=O)c1nc(C(=O)N[C@@H](Cc2ccccc2)C[C@H](C)C(=O)OC)cs1)C(C)C	2.41 µM	> 33.3 µM	7.49 µM	> 33.3 µM	1.36 µM	> 33.3 µM	1.88 µM	> 33.3 µM	1.72	> 33.3	1.38 µM	> 33.3 µM	3.18	> 33.3	0.642	1.78	0.481 µM	1.65 µM	0.351 µM	1.56 µM
Cc1cc(S(=O)(=O)Nc2nc3cc(-c4ccsc4)sc3c(=O)n2N)c(S)cc1Cl	> 100 µM	> 100 µM	> 100 µM	> 100 µM	> 100 µM	> 100 µM	69.6 µM	> 100 µM	> 100	> 100	34.1 µM	> 100 µM	50.6	> 100	> 100	> 100	> 100 µM	> 100 µM	> 100 µM	> 100 µM
